Converted amounts (≈) assume the structure as drawn. The source made the active and inactive calls. The calls are words filed in the database; no cut-off is given here.
Key:
Format in all cases: functional
Escherichia coli [1] = experiment: Antibacterial activity against Escherichia coli at 2 to 64 ug/ml after 24 hr by agar well diffusion method
Aspergillus niger [2] = experiment: Antifungal activity against Aspergillus niger at 2 to 64 ug/ml after 7 days by agar well diffusion method
Klebsiella aerogenes [3] = experiment: Antibacterial activity against Enterobacter aerogenes after 24 hr by agar well diffusion method
Aspergillus niger [4] = experiment: Antifungal activity against Aspergillus niger after 7 days by agar well diffusion method
Saccharomyces cerevisiae [5] = experiment: Antifungal activity against Saccharomyces cerevisiae at 2 to 64 ug/ml after 7 days by agar well diffusion method
Escherichia coli [6] = experiment: Antibacterial activity against Escherichia coli after 24 hr by agar well diffusion method
Saccharomyces cerevisiae [7] = experiment: Antifungal activity against Saccharomyces cerevisiae after 7 days by agar well diffusion method
Bacillus subtilis [8] = experiment: Antibacterial activity against Bacillus subtilis at 2 to 64 ug/ml after 24 hr by agar well diffusion method
Candida albicans [9] = experiment: Antifungal activity against Candida albicans after 7 days by agar well diffusion method
Klebsiella aerogenes [10] = experiment: Antibacterial activity against Enterobacter aerogenes at 2 to 64 ug/ml after 24 hr by agar well diffusion method
Candida albicans [11] = experiment: Antifungal activity against Candida albicans at 2 to 64 ug/ml after 7 days by agar well diffusion method
Bacillus subtilis [12] = experiment: Antibacterial activity against Bacillus subtilis after 24 hr by agar well diffusion method
Staphylococcus aureus [13] = experiment: Antibacterial activity against Staphylococcus aureus at 2 to 64 ug/ml after 24 hr by agar well diffusion method
Staphylococcus aureus [14] = experiment: Antibacterial activity against Staphylococcus aureus after 24 hr by agar well diffusion method

In the case of Nc1nn(-c2ccc([N+](=O)[O-])cc2[N+](=O)[O-])c(N)c1/N=N/c1ccc(F)cc1, the “diameter of the inhibition zone (DIZ)” value (Escherichia coli [1]) is reported as 13 mm, the “diameter of the inhibition zone (DIZ)” value (Aspergillus niger [2]) is reported as 10 mm and the MIC (Klebsiella aerogenes [3]) is reported as 2 mg/L (≈ 5.18 µM). The MIC (Aspergillus niger [4]; 168 h) was 2 mg/L (≈ 5.18 µM), the “diameter of the inhibition zone (DIZ)” value (Saccharomyces cerevisiae [5]) was 12 mm and the MIC (Escherichia coli [6]) was 2 mg/L (≈ 5.18 µM). The MIC (Saccharomyces cerevisiae [7]; 168 h) was 8 mg/L (≈ 20.7 µM), the “diameter of the inhibition zone (DIZ)” value (Bacillus subtilis [8]) was 10 mm and the MIC (Candida albicans [9]; 168 h) was 2 mg/L (≈ 5.18 µM). For the same molecule, the “diameter of the inhibition zone (DIZ)” value (Klebsiella aerogenes [10]) was 13 mm, the “diameter of the inhibition zone (DIZ)” value (Candida albicans [11]) was 11 mm and the MIC (Bacillus subtilis [12]) was 4 mg/L (≈ 10.4 µM). The Activity (Staphylococcus aureus [13]) was “inactive” and the MIC (Staphylococcus aureus [14]) was “inactive”.

With Nc1nn(-c2ccc(Cl)cc2)c(N)c1/N=N/c1ccc(F)cc1 the Activity (Escherichia coli [1]) was “inactive”, the Activity (Aspergillus niger [2]) was “inactive” and the MIC (Klebsiella aerogenes [3]) was 2 mg/L (≈ 6.05 µM). For the same molecule, the MIC (Aspergillus niger [4]) was “inactive”, the Activity (Saccharomyces cerevisiae [5]) was “inactive” and the MIC (Escherichia coli [6]) was “inactive”. The MIC (Saccharomyces cerevisiae [7]) was “inactive”, the Activity (Bacillus subtilis [8]) was “inactive” and the MIC (Candida albicans [9]; 168 h) was 2 mg/L (≈ 6.05 µM). For the same molecule, the “diameter of the inhibition zone (DIZ)” value (Klebsiella aerogenes [10]) was 12 mm, the “diameter of the inhibition zone (DIZ)” value (Candida albicans [11]) was 9 mm and the MIC (Bacillus subtilis [12]) was “inactive”. For the same molecule, the Activity (Staphylococcus aureus [13]) was “inactive” and the MIC (Staphylococcus aureus [14]) was “inactive”.

With Nc1nn(-c2ccccc2)c(N)c1/N=N/c1ccc(F)cc1 the “diameter of the inhibition zone (DIZ)” value (Escherichia coli [1]) was 12 mm, the Activity (Aspergillus niger [2]) was “inactive” and the MIC (Klebsiella aerogenes [3]) was 32 mg/L (≈ 108 µM). The MIC (Aspergillus niger [4]) was “inactive”, the “diameter of the inhibition zone (DIZ)” value (Saccharomyces cerevisiae [5]) was 12 mm and the MIC (Escherichia coli [6]) was 2 mg/L (≈ 6.75 µM). The MIC (Saccharomyces cerevisiae [7]; 168 h) was 4 mg/L (≈ 13.5 µM), the “diameter of the inhibition zone (DIZ)” value (Bacillus subtilis [8]) was 10 mm and the MIC (Candida albicans [9]; 168 h) was 2 mg/L (≈ 6.75 µM). The “diameter of the inhibition zone (DIZ)” value (Klebsiella aerogenes [10]) was 12 mm, the “diameter of the inhibition zone (DIZ)” value (Candida albicans [11]) was 7 mm and the MIC (Bacillus subtilis [12]) was 8 mg/L (≈ 27 µM). The Activity (Staphylococcus aureus [13]) was “inactive” and the MIC (Staphylococcus aureus [14]) was “inactive”.

With Nc1nn(-c2nc3ccc(Cl)cc3s2)c(N)c1/N=N/c1ccc(F)cc1 the Activity (Escherichia coli [1]) was “inactive”, the Activity (Aspergillus niger [2]) was “inactive” and the MIC (Klebsiella aerogenes [3]) was 2 mg/L (≈ 5.16 µM). The MIC (Aspergillus niger [4]) was “inactive”, the Activity (Saccharomyces cerevisiae [5]) was “inactive” and the MIC (Escherichia coli [6]) was “inactive”. For the same molecule, the MIC (Saccharomyces cerevisiae [7]) was “inactive”, the Activity (Bacillus subtilis [8]) was “inactive” and the MIC (Candida albicans [9]; 168 h) was 2 mg/L (≈ 5.16 µM). For the same molecule, the “diameter of the inhibition zone (DIZ)” value (Klebsiella aerogenes [10]) was 10 mm, the “diameter of the inhibition zone (DIZ)” value (Candida albicans [11]) was 12 mm and the MIC (Bacillus subtilis [12]) was “inactive”. The Activity (Staphylococcus aureus [13]) was “inactive” and the MIC (Staphylococcus aureus [14]) was “inactive”.

In the case of C=CC1=C(C(=O)O)N2C(=O)[C@@H](NC(=O)/C(=N\OCC(=O)O)c3csc(N)n3)[C@H]2SC1 [CEFIXIME], the “diameter of the inhibition zone (DIZ)” value (Escherichia coli [1]) is reported as 14 mm, the Activity (Aspergillus niger [2]) is reported as “inactive” and the MIC (Klebsiella aerogenes [3]) is reported as 2 mg/L (≈ 4.41 µM). For the same molecule, the MIC (Aspergillus niger [4]) was “inactive”, the Activity (Saccharomyces cerevisiae [5]) was “inactive” and the MIC (Escherichia coli [6]) was 2 mg/L (≈ 4.41 µM). For the same molecule, the MIC (Saccharomyces cerevisiae [7]) was “inactive”, the “diameter of the inhibition zone (DIZ)” value (Bacillus subtilis [8]) was 2.8 mm and the MIC (Candida albicans [9]) was “inactive”. For the same molecule, the “diameter of the inhibition zone (DIZ)” value (Klebsiella aerogenes [10]) was 15 mm, the Activity (Candida albicans [11]) was “inactive” and the MIC (Bacillus subtilis [12]) was 4 mg/L (≈ 8.82 µM). The “diameter of the inhibition zone (DIZ)” value (Staphylococcus aureus [13]) was 2.9 mm and the MIC (Staphylococcus aureus [14]) was 2 mg/L (≈ 4.41 µM).

For Nc1nn(-c2nc3ccccc3s2)c(N)c1/N=N/c1ccc(F)cc1, the “diameter of the inhibition zone (DIZ)” value (Escherichia coli [1]) was 12 mm, the Activity (Aspergillus niger [2]) was “inactive” and the MIC (Klebsiella aerogenes [3]) was 2 mg/L (≈ 5.66 µM). For the same molecule, the MIC (Aspergillus niger [4]) was “inactive”, the “diameter of the inhibition zone (DIZ)” value (Saccharomyces cerevisiae [5]) was 9 mm and the MIC (Escherichia coli [6]) was 8 mg/L (≈ 22.6 µM). The MIC (Saccharomyces cerevisiae [7]; 168 h) was 6 mg/L (≈ 17 µM), the “diameter of the inhibition zone (DIZ)” value (Bacillus subtilis [8]) was 9 mm and the MIC (Candida albicans [9]; 168 h) was 2 mg/L (≈ 5.66 µM). For the same molecule, the “diameter of the inhibition zone (DIZ)” value (Klebsiella aerogenes [10]) was 14 mm, the “diameter of the inhibition zone (DIZ)” value (Candida albicans [11]) was 12 mm and the MIC (Bacillus subtilis [12]) was 6 mg/L (≈ 17 µM). For the same molecule, the Activity (Staphylococcus aureus [13]) was “inactive” and the MIC (Staphylococcus aureus [14]) was “inactive”.

Cc1ccc2nc(-n3nc(N)c(/N=N/c4ccc(F)cc4)c3N)sc2c1 was tested, and the Activity (Escherichia coli [1]) was “inactive”, the Activity (Aspergillus niger [2]) was “inactive” and the MIC (Klebsiella aerogenes [3]) was 2 mg/L (≈ 5.44 µM). The MIC (Aspergillus niger [4]) was “inactive”, the Activity (Saccharomyces cerevisiae [5]) was “inactive” and the MIC (Escherichia coli [6]) was “inactive”. For the same molecule, the MIC (Saccharomyces cerevisiae [7]) was “inactive”, the Activity (Bacillus subtilis [8]) was “inactive” and the MIC (Candida albicans [9]; 168 h) was 2 mg/L (≈ 5.44 µM). For the same molecule, the “diameter of the inhibition zone (DIZ)” value (Klebsiella aerogenes [10]) was 10.5 mm, the “diameter of the inhibition zone (DIZ)” value (Candida albicans [11]) was 11 mm and the MIC (Bacillus subtilis [12]) was “inactive”. For the same molecule, the Activity (Staphylococcus aureus [13]) was “inactive” and the MIC (Staphylococcus aureus [14]) was “inactive”.

In the case of Cc1cc(C)nc(-n2nc(N)c(/N=N/c3ccc(F)cc3)c2N)n1, the Activity (Escherichia coli [1]) is reported as “inactive”, the Activity (Aspergillus niger [2]) is reported as “inactive” and the MIC (Klebsiella aerogenes [3]) is reported as 8 mg/L (≈ 24.5 µM). For the same molecule, the MIC (Aspergillus niger [4]) was “inactive”, the “diameter of the inhibition zone (DIZ)” value (Saccharomyces cerevisiae [5]) was 10 mm and the MIC (Escherichia coli [6]) was “inactive”. The MIC (Saccharomyces cerevisiae [7]; 168 h) was 8 mg/L (≈ 24.5 µM), the Activity (Bacillus subtilis [8]) was “inactive” and the MIC (Candida albicans [9]; 168 h) was 2 mg/L (≈ 6.13 µM). The “diameter of the inhibition zone (DIZ)” value (Klebsiella aerogenes [10]) was 9 mm, the “diameter of the inhibition zone (DIZ)” value (Candida albicans [11]) was 9 mm and the MIC (Bacillus subtilis [12]) was “inactive”. For the same molecule, the “diameter of the inhibition zone (DIZ)” value (Staphylococcus aureus [13]) was 4.5 mm and the MIC (Staphylococcus aureus [14]) was 16 mg/L (≈ 49 µM).

In the case of OC(Cn1cncn1)(Cn1cncn1)c1ccc(F)cc1F [FLUCONAZOLE], the Activity (Escherichia coli [1]) is reported as “inactive”, the “diameter of the inhibition zone (DIZ)” value (Aspergillus niger [2]) is reported as 13 mm and the MIC (Klebsiella aerogenes [3]) is reported as “inactive”. For the same molecule, the MIC (Aspergillus niger [4]; 168 h) was 2 mg/L (≈ 6.53 µM), the “diameter of the inhibition zone (DIZ)” value (Saccharomyces cerevisiae [5]) was 12 mm and the MIC (Escherichia coli [6]) was “inactive”. The MIC (Saccharomyces cerevisiae [7]; 168 h) was 4 mg/L (≈ 13.1 µM), the Activity (Bacillus subtilis [8]) was “inactive” and the MIC (Candida albicans [9]; 168 h) was 2 mg/L (≈ 6.53 µM). The Activity (Klebsiella aerogenes [10]) was “inactive”, the “diameter of the inhibition zone (DIZ)” value (Candida albicans [11]) was 10 mm and the MIC (Bacillus subtilis [12]) was “inactive”. For the same molecule, the Activity (Staphylococcus aureus [13]) was “inactive” and the MIC (Staphylococcus aureus [14]) was “inactive”.

For Cc1cc(-n2nc(N)c(/N=N/c3ccc(F)cc3)c2N)nc2ccccc12, the “diameter of the inhibition zone (DIZ)” value (Escherichia coli [1]) was 15 mm, the Activity (Aspergillus niger [2]) was “inactive” and the MIC (Klebsiella aerogenes [3]) was 8 mg/L (≈ 22.1 µM). The MIC (Aspergillus niger [4]) was “inactive”, the Activity (Saccharomyces cerevisiae [5]) was “inactive” and the MIC (Escherichia coli [6]) was 2 mg/L (≈ 5.53 µM). For the same molecule, the MIC (Saccharomyces cerevisiae [7]) was “inactive”, the “diameter of the inhibition zone (DIZ)” value (Bacillus subtilis [8]) was 12 mm and the MIC (Candida albicans [9]; 168 h) was 64 mg/L (≈ 177 µM). The “diameter of the inhibition zone (DIZ)” value (Klebsiella aerogenes [10]) was 15 mm, the “diameter of the inhibition zone (DIZ)” value (Candida albicans [11]) was 10 mm and the MIC (Bacillus subtilis [12]) was 4 mg/L (≈ 11.1 µM). The “diameter of the inhibition zone (DIZ)” value (Staphylococcus aureus [13]) was 2.6 mm and the MIC (Staphylococcus aureus [14]) was 2 mg/L (≈ 5.53 µM).

In the case of Nc1nn(-c2nc3ccc(F)cc3s2)c(N)c1/N=N/c1ccc(F)cc1, the Activity (Escherichia coli [1]) is reported as “inactive”, the “diameter of the inhibition zone (DIZ)” value (Aspergillus niger [2]) is reported as 14 mm and the MIC (Klebsiella aerogenes [3]) is reported as 4 mg/L (≈ 10.8 µM). For the same molecule, the MIC (Aspergillus niger [4]; 168 h) was 2 mg/L (≈ 5.39 µM), the Activity (Saccharomyces cerevisiae [5]) was “inactive” and the MIC (Escherichia coli [6]) was “inactive”. The MIC (Saccharomyces cerevisiae [7]) was “inactive”, the “diameter of the inhibition zone (DIZ)” value (Bacillus subtilis [8]) was 12 mm and the MIC (Candida albicans [9]) was “inactive”. For the same molecule, the “diameter of the inhibition zone (DIZ)” value (Klebsiella aerogenes [10]) was 11 mm, the Activity (Candida albicans [11]) was “inactive” and the MIC (Bacillus subtilis [12]) was 4 mg/L (≈ 10.8 µM). For the same molecule, the Activity (Staphylococcus aureus [13]) was “inactive” and the MIC (Staphylococcus aureus [14]) was “inactive”.

Source: ChEMBL document CHEMBL3046430, “Synthesis of some new 3,5-diamino-4-(4-fluorophenylazo)-1-aryl/heteroarylpyrazoles as antimicrobial agents” (2013)
